Values of other authors in US20080292693A1, “COMPOSITION AND METHOD FOR TREATING DIGESTIVE SYSTEM DISORDERS” (priority 2007, published 2008).

Experiments:
Crohn's disease = settings: double-blind clinical study, daily dose of 1,000 mg

Structure (SMILES): C=C(C)[C@H]1CC=C(C)CC1 [d-Limonene]
- symptoms of GERD (GERD; double-blind clinical study, daily dose of 1,000 mg): significantly reduce
- responders free of GERD symptoms (GERD; one GERD study, for up to six months without taking an additional dose): fifty
- symptoms of Crohn's disease (Crohn's disease): significantly reduce
